Measurements from US5998390A, “Combination of bisphosphonate and tetracycline” (The Research Foundation of State University of New York, priority 1998, dated 1999).

Key:
[1] = test system: osteoclast gelatinase; assay: Inhibition of osteoclast gelatinase ([3H-methyl] gelatin degradation by culture media); format: biochemical, chicken
Procedure: Post-incubation media from cultured chicken osteoclasts were partially-purified, then incubated with [^3 H-methyl] gelatin for 4 hours at 37° C. in the presence of 1.2 mM APMA to activate any latent Pro-gelatinase. The incubations were carried out in the presence (or absence) of several different concentrations (0.001-1000 μM) of a bisphosphonate, Didronel (Etidronic Acid); where appropriate, CMT-1 was added at a final concentration of 50 μM. After the 4 hour incubation, the reaction was stopped by the addition of 45% Trichloroacetic acid and carrier gelatin, the mixture was centrifuged, and aliquots of the supernatant, containing the radiolabeled gelatin degradation fragments, were counted in a liquid scintillation spectrometer.

[2] = target: T1, Recombinant human MT1 -MMP (MMP-14) (Homo sapiens, UniProt P50281); assay: β-casein degradation by MT1-MMP; format: biochemical; settings: single agent, 2 μM (suboptimal)
T1 construct: purchased In Vitro-Tek, Berlin, Germany
Procedure: Also, suboptimal inhibitory doses of CMT's and bisphosphonate, alone and in combination, were tested on pure human recombinant MT1 -MMP and MMP-9 activities using a β-casein-degradation assay.
Recombinant human ([…]) MT1 -MMP (also called MMP-14) (In Vitro-Tek, Berlin, Germany) was pretreated with buffer (none), 2 μM CMT-3 and 2 μM bisphosphonate clodronate (clodrinate) and combinations of 2 μM CMT-3 and 2 μM clodrinate for 1 h at 37° C. Subsequently, substrate β-casein (52 μM) was added to the incubation mixtures, and incubations continued for 60 min at 37° C.

[3] = test system: collagenase; assay: Gingival collagenase activity ([3H-methyl] collagen substrate, SDS-PAGE/fluorography) in extracts from treated LPS-injected rats; format: in vivo, rat; settings: Example 3; total collagenase after 1.2 mM APMA activation; vs untreated LPS-injected rats; CMT-8 1 mg/day, clodronate 1 mg/week
Procedure: (§1) LPS (lipopolysaccharide)-induced periodontitis rat model: Twenty four hours before treatment, the rats were injected into the upper anterior gingivae and into the palatal papillae between 1st and 2nd upper molars with 10 μL of LPS (1 mg/ml) or saline solution, for a total of 10 μg LPS per site injected. The LPS injections were repeated every other day to complete the three injections.
(§2) On day 7, all rats were anesthetized, blood samples were collected by cardiac puncture and rats were sacrificed. Tooth mobility was checked and the gingival tissue was dissected and stored at -80° C. for subsequent enzyme analysis. The jaws were defleshed for bone loss determination.
In a third experiment, 30 adult male rats were distributed into the following experimental groups: saline-injected group; groups injected with endotoxin and then administered no drug, CMT-8 alone (1 mg/day), clodronate alone (1 mg/week), or a combination of the same sub-optimal doses of both drugs. The experiment was terminated on day 7. As described above, the gingival tissues were dissected, extracted and the partially-purified extracts analyzed for neutral proteinase (elastase and matrix metalloproteinase) activities, and both tooth mobility and alveolar bone loss were assessed. […]

[4] = test system: LPS-injected rats; assay: Alveolar bone loss in LPS-induced periodontitis rat model (morphometric analysis of defleshed jaws); format: in vivo; settings: for effect on pathologic bone loss: 2 mg
Text: (§3) The activity of combinations of various tetracyclines and bisphosphonates was investigated in vivo. […] This procedure produces marked inflammation in the periodontal tissues and induces elevated levels of tissue-destructive matrix metalloproteinases (MMPs) and serine proteinases such as elastase in the gingiva leading to severe alveolar bone resorption and bone loss around the affected teeth, all within the 7-day experimental protocol. In brief, adult male rats with this experimentally-induced inflammatory disease were either left untreated, or treated with sub-optimal doses of (1) a CMT by itself; (II) a bisphosphonate by itself, or (III) a combination of (I) and (II). At the end of the experimental protocol, tooth mobility and alveolar bone loss, and levels of various tissue destructive MMP collagenases and gelatinases and serine enzymes in the gingiva, were measured.
(§4) For in vivo Examples, Thirty male Sprague-Dawley rates were distributed into 5 groups as follows:
(§5) The treatments were administered by oral gavage once per day (CMT-8) throughout the entire 7 day period, or by a single subcutaneous injection (clodrinate).
as §1, §2
(§6) The first experiment was designed to select sub-optimal doses of both CMT-8 (a chemically-modified, non-antibacterial tetracycline) and clodronate (a bisphosphonate) in the endotoxin-induced bone loss model. Groups of rats (n=5-6 rats/group) were anesthetized and injected directly into the gingival tissues with either saline (control group) or with LPS endotoxin every other day over a 7-day time period. Twenty-four hours after the first injection, groups of rats were administered by oral gavage either 0, 0.5mg, 1 mg, or 2mg CMT-8 daily for the next 6 days. At the end of the experiment, the rats were anesthetized, blood was drawn by intracardiac puncture, the rats were euthanized and the gingival tissues dissected for enzyme analysis. In addition, tooth mobility was scored and, after defleshing the jaws, alveolar bone loss around the teeth was scored morphometrically using a computer-assisted system.
(§7) In a third experiment, 30 adult male rats were distributed into the following experimental groups: saline-injected group; groups injected with endotoxin and then administered no drug, CMT-8 alone (1 mg/day), clodronate alone (1 mg/week), or a combination of the same sub-optimal doses of both drugs. The experiment was terminated on day 7. As described above, the gingival tissues were dissected, extracted and the partially-purified extracts analyzed for neutral proteinase (elastase and matrix metalloproteinase) activities, and both tooth mobility and alveolar bone loss were assessed.

[5] = test system: LPS-injected rats; assay: Tooth mobility in LPS-induced periodontitis rat model; format: in vivo; settings: for effect on tooth mobility / effect on pathologic tooth mobility: Examples 1 and 2; for effect on pathologic tooth mobility: 2 mg; for reduction in tooth mobility: Example 3, day 7, vs untreated LPS-injected rats, CMT-8 1 mg/day oral, clodronate 1 mg/week s.c., single agents not statistically significant, combination p<0.05; for tooth mobility relative to the level in saline-injected control rats: Example 3, single agents at sub-optimal dose
Text: as §3, §4
Group 1: Normal. Saline injected+placebo therapy (CMC)
Group 2: LPS. LPS injected+placebo (CMC)
Group 3: CMT-8. LPS injected+CMT-8 (1 mg/day)
Group 4: Clodronate. LPS injected+Clodronate (1 mg/week)
Group 5: Combo. LPS+CMT-8 (1 mg/day)+Clodronate (1 mg/week)
as §5, §1, §2, §6, §7
In FIG. 1, tooth mobility is based on the following scoring system:
1=slight movement (vestibule-palatal)
2=medium movement (vestibule-palatal)
3=severe movement (vertical mobility in and out of socket)

[6] = 0.5 mg, CMT-8 daily oral gavage, clodronate single subcutaneous injection, Examples 1 and 2
[7] = 1 mg (selected sub-optimal dose), Examples 1 and 2
[8] = CMT-8 daily oral gavage, clodronate single subcutaneous injection, Examples 1 and 2
[9] = Example 3, day 7, CMT-8 1 mg/day oral, clodronate 1 mg/week s.c.
[10] = 0.5 mg, CMT-8 daily oral gavage, clodronate single subcutaneous injection
[11] = 1 mg (selected sub-optimal dose)
[12] = CMT-8 daily oral gavage, clodronate single subcutaneous injection

Row | inhibition of osteoclast gelatinase activity ([1]; Didronel at 0.001, 0.1, 10, and 1000 μM final concentrations) | SMILES | inhibition of osteoclast gelatinase activity ([1]; 50 μM CMT-1, 4 hours at 37° C., 1.2 mM APMA) | inhibition of β-casein degradation by MT1-MMP [2] | reduction of gingival collagenase activity [3] | effect on alveolar bone loss [4, 6] | effect on alveolar bone loss [4, 7] | effect on pathologic bone loss [4, 8] | effect on alveolar bone loss [4, 9] | effect on tooth mobility [5, 10] | effect on tooth mobility [5, 11] | effect on pathologic tooth mobility [5, 12] | reduction in tooth mobility [5] [%] | tooth mobility relative to the level in saline-injected control rats [5]
1 | – | CC1(O)c2cccc(O)c2C(=O)C2=C(O)C3(O)C(=O)C(C(N)=O)=C(O)CC3CC21 (stereo not drawn) [CMT-1, 4-de(dimethylamino)tetracycline] | about 79% | – | – | – | – | – | – | – | – | – | – | –
2 | – | NC(=O)C1=C(O)C2(O)C(=O)C3=C(O)c4c(O)cccc4CC3CC2CC1=O (stereo not drawn) [CMT-3, 6-demethyl-6-deoxy-4-de(dimethylamino)tetracycline] | – | relative slight inhibition | – | – | – | – | – | – | – | – | – | –
3 | – | CC1c2cccc(O)c2C(O)=C2C(=O)[C@]3(O)C(O)=C(C(N)=O)C(=O)C[C@@H]3[C@@H](O)[C@@H]21 (stereo partly drawn) [CMT-8, 6-deoxy-5α-hydroxy-4-de(dimethylamino)tetracycline] | – | – | 22-31% | no significant effects | either no, or barely detectable beneficial effects | essentially returned the pathologic tooth mobility and bone loss, induced by bacteria endotoxin, to control levels | reduced alveolar bone loss only slightly, if at all | no significant effects | either no, or barely detectable beneficial effects | essentially returned the pathologic tooth mobility and bone loss, induced by bacteria endotoxin, to control levels | 18 | more than twice the level seen in the control rats
4 | did not show any detectable inhibition | CC(O)(P(=O)(O)O)P(=O)(O)O [Didronel, Etidronic Acid] | – | – | – | – | – | – | – | – | – | – | – | –
5 | – | O=P(O)(O)C(Cl)(Cl)P(=O)(O)O [clodronate, dichloromethane diphosphonic acid] | – | relative slight inhibition | 22-31% | no significant effects | either no, or barely detectable beneficial effects | essentially returned the pathologic tooth mobility and bone loss, induced by bacteria endotoxin, to control levels | reduced alveolar bone loss only slightly, if at all | no significant effects | either no, or barely detectable beneficial effects | essentially returned the pathologic tooth mobility and bone loss, induced by bacteria endotoxin, to control levels | 18 | more than twice the level seen in the control rats
